Experimental data taken from patent publication US8101601B2, “Aminoacyl prodrug derivatives and medicaments for the treatment of thromboembolitic disorders” (Bayer Pharma Aktiengesellschaft, priority 2007, dated 2012).
Where a name gives a salt, the structure may show the parent alone.

Assays:
[1] = Determination of the solubility (suspension shaken 24 h at room temperature, HPLC); assay type: physicochemical; conditions: dilute hydrochloric acid (pH 4), pH 4, aqueous buffer, thermodynamic from solid, room temperature, 24 h
Method: […] This suspension is shaken at room temperature for 24 h. After ultracentrifugation at 224 000 g for 30 min, the supernatant is diluted with DMSO and analysed by HPLC. A two-point calibration plot of the test compound in DMSO is used for quantification.
Agilent 1100 with DAD (G1315A), quat. pump (G1311A), autosampler CTC HTS PAL, degasser (G1322A) and column thermostat (G1316A); column: Zorbax Extend-C18 3.5μ; temperature: 40° C.; eluent A: water+5 ml of perchloric acid/liter, eluent B: acetonitrile; flow rate: 0.7 ml/min; gradient: 0-0.5 min 98% A, 2% B; ramp 0.5-4.5 min 10% A, 90% B; 4.5-6 min 10% A, 90% B; ramp 6.5-6.7 min 98% A, 2% B; 6.7-7.5 min 98% A, 2% B.

[2] = Stability in buffer at various pH values (HPLC, 37° C., 24 h); assay type: physicochemical
Method: 0.3 mg of the test substance is weighed into a 2 ml HPLC vial and 0.5 ml of acetonitrile is added. The substance is dissolved by putting the sample vessel in an ultrasonic bath for about 10 seconds. Then 0.5 ml of the respective buffer solution is added, and the sample is again treated in the ultrasonic bath.
• pH 4.0:1 liter of Millipore water is adjusted to pH 4.0 with 1 N hydrochloric acid; • pH 7.4: 90 g of sodium chloride, 13.61 g of potassium dihydrogen phosphate and 83.35 g of 1 M sodium hydroxide solution are made up to 1 liter with Millipore water and then diluted 1:10.
5 μl portions of the test solution are analysed by HPLC for their content of unchanged test substance every hour over a period of 24 hours at 37° C. The percentage areas of the appropriate peaks are used for quantification.
Agilent 1100 with DAD (G1314A), binary pump (G1312A), autosampler (G1329A), column oven (G1316A), thermostat (G1330A); column: Kromasil 100 C18, 125 mm×4.6 mm, 5 μm; column temperature: 30° C.; eluent A: water+5 ml of perchloric acid/liter, eluent B: acetonitrile.
The ratios of the peak areas (F) at the respective time points in relation to the peak areas at the starting time are shown in Table 2 for representative exemplary embodiments: […]

Row | SMILES | solubility at 24 h [1] [µg/mL] | % test substance after 4 h [F(t = 4 h) × 100/F(t = 0 h)] ([2]; buffer pH 4, 37° C.) [%] | % Test substance after 24 h [F(t = 24 h) × 100/F(t = 0 h)] ([2]; buffer pH 4, 37° C.) [%] | % test substance after 4 h [F(t = 4 h) × 100/F(t = 0 h)] ([2]; buffer pH 7.4, 37° C.) [%] | % Test substance after 24 h [F(t = 24 h) × 100/F(t = 0 h)] ([2]; buffer pH 7.4, 37° C.) [%]
1 | CC(C)(N)C(=O)OCC(=O)N(C[C@H]1CN(c2ccc(N3CCOCC3=O)cc2)C(=O)O1)C(=O)c1ccc(Cl)s1 [Example 2, 2-[[(5-Chloro-2-thienyl)carbonyl]({(5S)-2-oxo-3-[4-(3-oxomorpholin-4-yl)phenyl]-1,3-oxazolidin-5-yl}methyl)amino]-2-oxoethyl-2-methylalaninate hydrochloride] | > 500 | 100 | 100 | 96 | 80
2 | O=C(OCC(=O)N(C[C@H]1CN(c2ccc(N3CCOCC3=O)cc2)C(=O)O1)C(=O)c1ccc(Cl)s1)[C@@H]1CCCN1 [Example 4, 2-[[(5-Chloro-2-thienyl)carbonyl] ({(5S)-2-oxo-3-[4-(3-oxomorpholin-4-yl)phenyl]-1,3-oxazolidin-5-yl}methyl)amino]-2-oxoethyl L-prolinate hydrochloride] | 480 | 100 | 100 | 31 | 0
3 | CNCC(=O)OCC(=O)N(C[C@H]1CN(c2ccc(N3CCOCC3=O)cc2)C(=O)O1)C(=O)c1ccc(Cl)s1 [Example 5, 2-[[(5-Chloro-2-thienyl)carbonyl]({(5S)-2-oxo-3-[4-(3-oxomorpholin-4-yl)phenyl]-1,3-oxazolidin-5-yl}methyl)amino]-2-oxoethyl N-methylglycinate hydrochloride] | 330 | 100 | 94 | 68 | 14
4 | NCCCC[C@H](N)C(=O)OCC(=O)N(C[C@H]1CN(c2ccc(N3CCOCC3=O)cc2)C(=O)O1)C(=O)c1ccc(Cl)s1 [Example 7, 2-[[(5-Chloro-2-thienyl)carbonyl]({(5S)-2-oxo-3-[4-(3-oxomorpholin-4-yl)phenyl]-1,3-oxazolidin-5-yl}methyl)amino]-2-oxoethyl L-lysinate dihydrochloride] | 340 | 100 | 99 | 48 | 3

Continued, values first:

Row | solubility at 24 h [1] [µg/mL] | % test substance after 4 h [F(t = 4 h) × 100/F(t = 0 h)] ([2]; buffer pH 4, 37° C.) [%] | % Test substance after 24 h [F(t = 24 h) × 100/F(t = 0 h)] ([2]; buffer pH 4, 37° C.) [%] | % test substance after 4 h [F(t = 4 h) × 100/F(t = 0 h)] ([2]; buffer pH 7.4, 37° C.) [%] | % Test substance after 24 h [F(t = 24 h) × 100/F(t = 0 h)] ([2]; buffer pH 7.4, 37° C.) [%] | SMILES
5 | 320 | 100 | 99 | 49 | 3 | NCC(=O)OCC(=O)N(C[C@H]1CN(c2ccc(N3CCOCC3=O)cc2)C(=O)O1)C(=O)c1ccc(Cl)s1 [Example 1, 2-[[(5-Chloro-2-thienyl)carbonyl]({(5S)-2-oxo-3-[4-(3-oxomorpholin-4-yl)phenyl]-1,3-oxazolidin-5-yl}methyl)amino]-2-oxoethyl glycinate hydrochloride]
6 | 340 | 100 | 99 | 88 | 48 | CC(C)[C@H](N)C(=O)OCC(=O)N(C[C@H]1CN(c2ccc(N3CCOCC3=O)cc2)C(=O)O1)C(=O)c1ccc(Cl)s1 [Example 3, 2-[[(5-Chloro-2-thienyl)carbonyl]({(5S)-2-oxo-3-[4-(3-oxomorpholin-4-yl)phenyl]-1,3-oxazolidin-5-yl}methyl)amino]-2-oxoethyl L-valinate hydrochloride]
7 | – | 99 | 81 | 2 | 0 | N[C@@H](Cc1c[nH]cn1)C(=O)OCC(=O)N(C[C@H]1CN(c2ccc(N3CCOCC3=O)cc2)C(=O)O1)C(=O)c1ccc(Cl)s1 [Example 8, 2-[[(5-Chloro-2-thienyl)carbonyl]({(5S)-2-oxo-3-[4-(3-oxomorpholin-4-yl)phenyl]-1,3-oxazolidin-5-yl}methyl)amino]-2-oxoethyl L-histidinate dihydrochloride]
